In patent publication EP4745138A1, “THIO-GLUTARIMIDO ISOINDOLINONE DERIVATIVE, BIFUNCTIONAL PROTEIN DEGRADER CONTAINING SAME, AND USES THEREOF” (Gluetacs Therapeutics (Shanghai) Co., Ltd., priority 2023, dated 2025):
Where two headings read alike, the source gives them in different places. Values belong to the compound of their own block, whether it stands above or below them.

Experiments:
MM.1S = experiment: Tumor cell proliferation inhibition (CellTiter-Meiluncell Luminescent Cell Viability Assay); type: cell-based; conditions: Homo sapiens, MM1.S, MM.1S, 96 hours; for inhibition at 0.01 µM: 10 nM, read-out: Inhibition Rate at 10 nM (%); for inhibition at 0.5 µM: 500 nM, read-out: Inhibition Rate at 500 nM (%)
In short: (§1)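 Following overnight seeding, tumor cells received serial compound dilutions to final levels that included 10 nM and 500 nM. Viability was assessed by luminescence at the end of the specified exposure time. Cultures were kept at 37°C with 5% CO2.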

CDK4 = biological target: T1, CDK4 (Homo sapiens, UniProt P11802); experiment: Western blot, target protein degradation in MDA-MB-231 Cell; type: cell-based; conditions: substrate protein remaining %, treated at 500 nM and 50 nM, 24 hours
T1 construct: endogenous in cells; host or cells: MDA-MB-231
Procedure: (§2) Conventional Western blot assay was performed to evaluate the effects of the compounds of the present disclosure on the expression of target proteins in cells.
(§3) (1) Cell Seeding and Protein Harvesting: The selected cells were processed according to the cell seeding procedure and protein harvesting procedure in Table II-2. Table II-2 Cell Seeding and Protein Harvesting Procedures
(§4) (2) To the collected supernatant, 5X SDS sample loading buffer was added, followed by denaturation at 95°C for 5 minutes. The denatured samples were then separated by SDS-PAGE electrophoresis on a polyacrylamide gel. Proteins were transferred to a nitrocellulose membrane (0.45 µm NC membrane), blocked with blocking buffer at room temperature for 1 hour, and subjected to antibody incubation and development procedures according to the antibody manufacturer's instructions (Cell Signaling Technology).
(§5) Half-Maximal Degradation Concentration value (the drug concentration required for degrading proteins by 50%, abbreviated as DC50) reads method: comparing the grayscale values of Western blot bands from drug-treated samples with those from blank DMSO-treated controls, and identifying the drug concentration range at which the grayscale value is half that of the DMSO-treated control bands.
(§6) DC50 values can be calculated using ImageJ software to measure grayscale values of Western blot bands from drug-treated samples. The concentration-response curve is fitted to estimate the drug concentration corresponding to half the grayscale value.
(§7) Target protein remaining (%) refers to the percentage of target protein remaining in cells after treatment with protein degrader compounds.
(§8) Calculation method for target protein remaining (%): Use ImageJ software to measure grayscale values of Western blot bands from drug (protein degrader)-treated samples. The grayscale value of drug-treated bands is divided by that of internal control protein bands, and the resulting quotient is normalized to obtain the relative percentage of remaining target protein after protein degrader treatment. Target protein degradation rate(%) = 1−target protein remaining(%). [formula]

CDK6 = biological target: T2, CDK6 (Homo sapiens, UniProt Q00534); experiment: as above; type: cell-based; conditions: substrate protein remaining %, treated at 500 nM and 50 nM, 24 hours
T2 construct: endogenous in cells; host or cells: MDA-MB-231
Procedure: as §2, §3, §4, §5, §6, §7, §8

[1] = biological target: T3, human Cereblon WT GST-tagged protein (Homo sapiens, UniProt Q96SW2); experiment: CRBN-binding affinity, HTRF (CEREBLON BINDING kit); conditions: for inhibition at 0.5 µM: read-out: Inhibition Rate at 0.5 µM (%); for inhibition at 2 µM: read-out: Inhibition Rate at 2 µM (%)
T3 construct: purchased CISBIO 64BDCRBNPEH
In short: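 HTRF competition against a thalidomide-red probe using GST-tagged Cereblon and Eu-labelled anti-GST antibody. Test concentrations (final): 2 µM and 0.5 µM in diluent #9 (1X); blank controls lack compound and protein, containing PROTAC binding buffer.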

MV-4-11 = experiment: Tumor cell proliferation inhibition (CellTiter-Meiluncell Luminescent Cell Viability Assay); type: cell-based; conditions: Homo sapiens, 96 hours; for inhibition at 0.01 µM: MV4-11, 10 nM, read-out: Inhibition Rate at 10 nM (%); for inhibition at 0.5 µM: MV4-11, 500 nM, read-out: Inhibition Rate at 500 nM (%)
In short: as §1

RPMI-8226 = experiment: as above; type: cell-based; conditions: Homo sapiens, 96 hours, Table I-10, BCR-ABL inhibitors; for inhibition at 0.01 µM: 10 nM, read-out: Inhibition Rate at 10 nM (%); for inhibition at 0.5 µM: 500 nM, read-out: Inhibition Rate at 500 nM (%)
In short: as §1

SW620 = experiment: as above; type: cell-based; conditions: Homo sapiens, 96 hours, Table I-10, BCR-ABL inhibitors
In short: as §1

BCR-ABL = biological target: T4, BCR-ABL (Homo sapiens, UniProt P00519+P11274+Q96SW2, E27K); experiment: Western blot, target protein degradation in K562 Cell; type: cell-based; conditions: substrate protein remaining %, treated at 500 nM and 50 nM, 24 hours
T4 construct: endogenous in cells; host or cells: K562
Procedure: as §2, §3, §4, §5, §6, §7, §8

A375 = experiment: Tumor cell proliferation inhibition (CellTiter-Meiluncell Luminescent Cell Viability Assay); type: cell-based; conditions: Homo sapiens, 96 hours, Table I-2, ALK inhibitors
In short: (§9)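 Cells were grown at 37°C under 5% CO2, seeded into 96-well plates, and dosed with compound on the next day. After a set treatment period, viability was read by luminescence with the CellTiter-Meiluncell reagent and IC50 values were derived. Final compound concentrations included 500 nM and 10 nM.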

CFPAC-1 = experiment: as above; type: cell-based; conditions: Homo sapiens, 96 hours, Table I-2, ALK inhibitors
In short: as §9

T4 sequence (P11274+P00519 fused, stated change not applied): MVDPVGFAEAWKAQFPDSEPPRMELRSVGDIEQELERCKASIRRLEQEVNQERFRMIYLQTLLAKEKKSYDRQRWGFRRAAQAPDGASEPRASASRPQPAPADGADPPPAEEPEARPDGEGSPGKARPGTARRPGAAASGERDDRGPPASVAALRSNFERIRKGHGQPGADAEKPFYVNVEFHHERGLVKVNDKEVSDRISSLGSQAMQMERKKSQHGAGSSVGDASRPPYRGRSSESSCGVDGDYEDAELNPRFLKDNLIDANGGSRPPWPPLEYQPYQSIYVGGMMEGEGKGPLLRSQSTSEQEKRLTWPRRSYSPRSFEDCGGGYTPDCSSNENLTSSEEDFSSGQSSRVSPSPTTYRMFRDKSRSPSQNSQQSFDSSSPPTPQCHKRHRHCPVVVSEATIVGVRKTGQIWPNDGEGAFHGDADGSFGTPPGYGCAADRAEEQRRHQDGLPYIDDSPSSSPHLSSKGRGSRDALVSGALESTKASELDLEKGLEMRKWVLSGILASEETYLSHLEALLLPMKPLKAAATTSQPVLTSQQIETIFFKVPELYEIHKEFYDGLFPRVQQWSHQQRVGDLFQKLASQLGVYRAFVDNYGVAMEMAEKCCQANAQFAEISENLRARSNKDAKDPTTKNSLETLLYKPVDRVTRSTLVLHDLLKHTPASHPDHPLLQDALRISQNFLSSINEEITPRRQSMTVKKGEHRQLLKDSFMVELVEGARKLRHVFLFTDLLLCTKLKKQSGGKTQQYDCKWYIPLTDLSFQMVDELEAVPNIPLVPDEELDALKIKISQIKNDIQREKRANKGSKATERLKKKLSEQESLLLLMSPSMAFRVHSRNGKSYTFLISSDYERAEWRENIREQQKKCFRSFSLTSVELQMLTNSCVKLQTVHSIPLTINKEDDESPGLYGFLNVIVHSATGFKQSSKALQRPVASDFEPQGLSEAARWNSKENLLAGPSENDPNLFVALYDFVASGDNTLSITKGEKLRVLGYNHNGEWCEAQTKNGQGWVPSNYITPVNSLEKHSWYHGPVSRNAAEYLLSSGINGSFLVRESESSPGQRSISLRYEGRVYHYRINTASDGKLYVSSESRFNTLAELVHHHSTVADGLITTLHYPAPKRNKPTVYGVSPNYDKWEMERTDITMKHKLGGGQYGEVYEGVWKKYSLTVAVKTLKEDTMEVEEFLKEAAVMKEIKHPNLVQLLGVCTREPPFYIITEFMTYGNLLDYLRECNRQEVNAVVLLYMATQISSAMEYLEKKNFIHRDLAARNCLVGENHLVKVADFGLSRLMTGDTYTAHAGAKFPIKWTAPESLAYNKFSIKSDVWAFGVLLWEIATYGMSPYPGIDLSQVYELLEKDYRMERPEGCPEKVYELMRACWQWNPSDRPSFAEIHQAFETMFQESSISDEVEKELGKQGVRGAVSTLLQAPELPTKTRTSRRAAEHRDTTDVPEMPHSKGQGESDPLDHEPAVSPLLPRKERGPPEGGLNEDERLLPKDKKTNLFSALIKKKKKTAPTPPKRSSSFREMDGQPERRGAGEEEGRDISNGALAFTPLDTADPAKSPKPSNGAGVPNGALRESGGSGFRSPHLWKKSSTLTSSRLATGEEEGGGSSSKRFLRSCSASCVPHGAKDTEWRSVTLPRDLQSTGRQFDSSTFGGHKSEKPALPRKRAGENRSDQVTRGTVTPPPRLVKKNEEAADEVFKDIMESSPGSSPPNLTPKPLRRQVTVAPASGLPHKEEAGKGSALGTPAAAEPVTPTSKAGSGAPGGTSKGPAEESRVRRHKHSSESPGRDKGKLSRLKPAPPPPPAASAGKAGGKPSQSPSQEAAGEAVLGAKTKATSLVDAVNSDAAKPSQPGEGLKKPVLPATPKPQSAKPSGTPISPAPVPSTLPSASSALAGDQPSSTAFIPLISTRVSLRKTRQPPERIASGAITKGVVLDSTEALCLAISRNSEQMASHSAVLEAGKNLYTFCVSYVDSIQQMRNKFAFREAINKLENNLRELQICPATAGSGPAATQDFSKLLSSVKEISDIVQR
T4 sequence (Q96SW2 whole entry, stated change not applied): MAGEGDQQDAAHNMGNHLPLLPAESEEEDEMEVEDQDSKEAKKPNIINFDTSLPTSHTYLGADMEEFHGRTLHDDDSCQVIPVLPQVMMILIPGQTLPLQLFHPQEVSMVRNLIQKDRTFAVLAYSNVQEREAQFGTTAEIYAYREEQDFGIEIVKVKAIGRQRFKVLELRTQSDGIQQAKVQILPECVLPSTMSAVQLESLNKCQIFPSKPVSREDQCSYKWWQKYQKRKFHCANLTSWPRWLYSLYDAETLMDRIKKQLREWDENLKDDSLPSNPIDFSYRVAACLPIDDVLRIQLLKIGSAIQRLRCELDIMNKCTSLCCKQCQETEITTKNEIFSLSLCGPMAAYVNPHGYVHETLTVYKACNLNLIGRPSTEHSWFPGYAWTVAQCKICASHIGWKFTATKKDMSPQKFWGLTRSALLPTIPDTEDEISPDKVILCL
T4 sequence (Q16531 whole entry partner): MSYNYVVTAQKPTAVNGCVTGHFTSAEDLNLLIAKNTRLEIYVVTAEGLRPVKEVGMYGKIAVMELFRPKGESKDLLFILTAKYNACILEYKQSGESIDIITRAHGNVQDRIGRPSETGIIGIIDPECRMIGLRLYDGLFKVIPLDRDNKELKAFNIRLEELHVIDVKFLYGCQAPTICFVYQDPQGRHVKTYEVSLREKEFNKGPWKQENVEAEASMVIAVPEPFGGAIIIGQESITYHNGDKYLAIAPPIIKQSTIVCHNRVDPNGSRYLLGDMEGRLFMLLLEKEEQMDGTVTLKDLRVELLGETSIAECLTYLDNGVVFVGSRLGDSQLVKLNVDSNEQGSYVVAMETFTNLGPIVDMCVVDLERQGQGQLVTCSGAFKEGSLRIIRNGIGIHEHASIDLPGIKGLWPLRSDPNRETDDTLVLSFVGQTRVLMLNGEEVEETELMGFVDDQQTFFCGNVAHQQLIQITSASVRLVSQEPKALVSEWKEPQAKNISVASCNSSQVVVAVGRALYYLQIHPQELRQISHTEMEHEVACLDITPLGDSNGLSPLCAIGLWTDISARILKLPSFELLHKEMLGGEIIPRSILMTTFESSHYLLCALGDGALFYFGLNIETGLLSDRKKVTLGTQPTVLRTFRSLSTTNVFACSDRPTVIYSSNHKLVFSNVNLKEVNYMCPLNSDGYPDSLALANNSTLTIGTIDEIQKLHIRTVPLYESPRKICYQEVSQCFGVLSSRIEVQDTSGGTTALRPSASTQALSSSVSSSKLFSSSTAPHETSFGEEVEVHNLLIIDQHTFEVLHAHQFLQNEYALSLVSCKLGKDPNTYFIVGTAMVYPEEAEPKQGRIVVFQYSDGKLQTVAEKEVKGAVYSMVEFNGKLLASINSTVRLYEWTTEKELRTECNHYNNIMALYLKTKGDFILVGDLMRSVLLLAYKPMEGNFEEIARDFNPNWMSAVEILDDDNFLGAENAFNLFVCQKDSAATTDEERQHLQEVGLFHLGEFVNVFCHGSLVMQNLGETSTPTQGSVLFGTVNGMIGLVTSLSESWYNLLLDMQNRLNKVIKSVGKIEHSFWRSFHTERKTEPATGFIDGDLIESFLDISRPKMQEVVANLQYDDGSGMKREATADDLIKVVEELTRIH
T2 sequence (Q00534 whole entry): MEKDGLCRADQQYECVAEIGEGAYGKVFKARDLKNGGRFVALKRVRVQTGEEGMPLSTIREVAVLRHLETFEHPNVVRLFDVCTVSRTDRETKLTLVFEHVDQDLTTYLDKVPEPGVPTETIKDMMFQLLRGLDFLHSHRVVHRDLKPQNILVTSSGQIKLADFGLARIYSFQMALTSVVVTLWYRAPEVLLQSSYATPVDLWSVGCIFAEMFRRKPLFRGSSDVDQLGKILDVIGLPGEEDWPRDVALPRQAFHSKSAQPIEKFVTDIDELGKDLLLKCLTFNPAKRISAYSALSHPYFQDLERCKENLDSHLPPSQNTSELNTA
T3 sequence (Q96SW2 whole entry): as the sequence (Q96SW2 whole entry, stated change not applied) above
T1 sequence (P11802 whole entry): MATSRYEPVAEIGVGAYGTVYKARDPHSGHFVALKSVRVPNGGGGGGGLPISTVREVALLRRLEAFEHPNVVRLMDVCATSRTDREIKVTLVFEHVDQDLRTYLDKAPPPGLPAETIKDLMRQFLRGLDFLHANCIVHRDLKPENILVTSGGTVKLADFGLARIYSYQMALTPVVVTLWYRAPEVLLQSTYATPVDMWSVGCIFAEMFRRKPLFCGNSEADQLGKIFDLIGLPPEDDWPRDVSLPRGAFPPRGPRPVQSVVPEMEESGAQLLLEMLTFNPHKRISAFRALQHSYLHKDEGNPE

Compound: Cc1ccc(C(=O)Nc2ccc(CN3CCN(Cc4ccc5c(c4)CN(C4CCC(=O)NC4=O)C5=S)CC3)c(C(F)(F)F)c2)cc1C#Cc1cnc2cccnn12 (stereo not shown) [GT-08767, N-(4-((4-((2-(2,6-dioxopiperidin-3-yl)-1-thioxoisoindolin-5-yl)methyl)piperazin-1-yl)methyl)-3-(trifluoromethyl)phenyl)-3-(imidazo[1,2-b]pyridazin-3-ylethynyl)-4-methylbenzamide]
inhibition at 0.01 µM (MM.1S; Table I-10, BCR-ABL inhibitors): 70 to 80%
inhibition at 0.5 µM (MM.1S; Table I-10, BCR-ABL inhibitors): 80 to 100%
inhibition at 0.01 µM (MV-4-11; Table I-10, BCR-ABL inhibitors): 80 to 100%
inhibition at 0.5 µM (MV-4-11; Table I-10, BCR-ABL inhibitors): 80 to 100%
inhibition at 0.01 µM (RPMI-8226): 20 to 30%
inhibition at 0.5 µM (RPMI-8226): 80 to 100%
inhibition at 0.01 µM (SW620; SW-620, 10 nM, read-out: Inhibition Rate at 10 nM (%)): 40 to 50%
inhibition at 0.5 µM (SW620; SW-620, 500 nM, read-out: Inhibition Rate at 500 nM (%)): 80 to 100%
Degradation of substrate protein BCR-ABL (BCR-ABL): A (0% ≤ substrate protein remaining % ≤ 80%)

Compound: CN(C)C(=O)c1cc2cnc(Nc3ccc(N4CCN(Cc5cccc6c5CN(C5CCC(=O)NC5=O)C6=S)CC4)cn3)nc2n1C1CCCC1 (stereo not shown) [GT-08771, 7-cyclopentyl-2-((5-(4-((2-(2,6-dioxopiperidin-3-yl)-1-thioxoisoindolin-4-yl)methyl)piperazin-1-yl)pyridin-2-yl)amino)-N,N-dimethyl-7H-pyrrolo[2,3-d]pyrimidine-6-carboxamide]
Degradation of substrate protein CDK4 (CDK4): A (0% ≤ substrate protein remaining % ≤ 80%)
Degradation of substrate protein CDK6 (CDK6): A (0% ≤ substrate protein remaining % ≤ 80%)
inhibition at 0.5 µM [1]: 60 to 80%
inhibition at 2 µM [1]: 80 to 100%

Compound: CC(=O)c1c(C)c2cnc(Nc3ccc(N4CCN(Cc5cccc6c5CN(C5CCC(=O)NC5=O)C6=S)CC4)cn3)nc2n(C2CCCC2)c1=O (stereo not shown) [GT-08772, 3-(4-((4-(6-((6-acetyl-8-cyclopentyl-5-methyl-7-oxo-7,8-dihydropyrido[2,3-d]pyrimidin-2-yl)amino)pyridin-3-yl)piperazin-1-yl)methyl)-1-thioxoisoindolin-2-yl)piperidine-2,6-dione]
inhibition at 0.01 µM (MV-4-11; Table I-9, CDK4/6 inhibitors): 30 to 40%
inhibition at 0.5 µM (MV-4-11; Table I-9, CDK4/6 inhibitors): 40 to 50%
Degradation of substrate protein CDK4 (CDK4): A (0% ≤ substrate protein remaining % ≤ 80%)
Degradation of substrate protein CDK6 (CDK6): A (0% ≤ substrate protein remaining % ≤ 80%)

Compound: Cc1ccc(C(=O)Nc2ccc(N3CCN(Cc4cccc5c4CN(C4CCC(=O)NC4=O)C5=S)CC3)c(C(F)(F)F)c2)cc1C#Cc1cnc2cccnn12 (stereo not shown) [GT-08774, N-(4-(4-((2-(2,6-dioxopiperidin-3-yl)-1-thioxoisoindolin-4-yl)methyl)piperazin-1-yl)-3-(trifluoromethyl)phenyl)-3-(imidazo[1,2-b]pyridazin-3-ylethynyl)-4-methylbenzamide]
inhibition at 0.01 µM (MV-4-11; Table I-10, BCR-ABL inhibitors): 20 to 30%
inhibition at 0.5 µM (MV-4-11; Table I-10, BCR-ABL inhibitors): 70 to 80%
Degradation of substrate protein BCR-ABL (BCR-ABL): A (0% ≤ substrate protein remaining % ≤ 80%)

Further lines, with some results ahead:

inhibition at 0.5 µM [1]: 40 to 53%
inhibition at 2 µM [1]: 80 to 100%
Compound: CN(C)C(=O)c1cc2cnc(Nc3ccc(N4CCN(Cc5ccc6c(c5)CN(C5CCC(=O)NC5=O)C6=S)CC4)cn3)nc2n1C1CCCC1 (stereo not shown) [GT-08765, 7-cyclopentyl-2-((5-(4-((2-(2,6-dioxopiperidin-3-yl)-1-thioxoisoindolin-5-yl)methyl)piperazin-1-yl)pyridin-2-yl)amino)-N,N-dimethyl-7H-pyrrolo[2,3-d]pyrimidine-6-carboxamide]
inhibition at 0.01 µM (MM.1S; Table I-9, CDK4/6 inhibitors): 30 to 40%
inhibition at 0.5 µM (MM.1S; Table I-9, CDK4/6 inhibitors): 40 to 50%
Degradation of substrate protein CDK4 (CDK4): A (0% ≤ substrate protein remaining % ≤ 80%)
Degradation of substrate protein CDK6 (CDK6): A (0% ≤ substrate protein remaining % ≤ 80%)

inhibition at 0.5 µM [1]: 53 to 60%
inhibition at 2 µM [1]: 80 to 100%
Compound: CC(=O)c1c(C)c2cnc(Nc3ccc(N4CCN(Cc5ccc6c(c5)CN(C5CCC(=O)NC5=O)C6=S)CC4)cn3)nc2n(C2CCCC2)c1=O (stereo not shown) [GT-08766, 3-(5-((4-(6-((6-acetyl-8-cyclopentyl-5-methyl-7-oxo-7,8-dihydropyrido[2,3-d]pyrimidin-2-yl)amino)pyridin-3-yl)piperazin-1-yl)methyl)-1-thioxoisoindolin-2-yl)piperidine-2,6-dione]
Degradation of substrate protein CDK4 (CDK4): A (0% ≤ substrate protein remaining % ≤ 80%)
Degradation of substrate protein CDK6 (CDK6): A (0% ≤ substrate protein remaining % ≤ 80%)

inhibition at 0.5 µM [1]: 20 to 30%
inhibition at 2 µM [1]: 60 to 80%
Compound: O=C1CCC(N2Cc3cc(CN4CCN(C5CCN(c6ncc(C(=O)Nc7ccc(OC(F)(F)Cl)cc7)cc6-c6cc[nH]n6)CC5)CC4)ccc3C2=S)C(=O)N1 (stereo not shown) [GT-08770, N-(4-(chlorodifluoromethoxy)phenyl)-6-(4-(4-((2-(2,6-dioxopiperidin-3-yl)-1-thioxoisoindolin-5-yl)methyl)piperazin-1-yl)piperidin-1-yl)-5-(1H-pyrazol-3-yl)nicotinamide]
inhibition at 0.01 µM (MM.1S; Table I-10, BCR-ABL inhibitors): 5 to 10%
inhibition at 0.5 µM (MM.1S; Table I-10, BCR-ABL inhibitors): 30 to 40%
inhibition at 0.01 µM (RPMI-8226): 10 to 20%
inhibition at 0.5 µM (RPMI-8226): 40 to 50%
Degradation of substrate protein BCR-ABL (BCR-ABL): A (0% ≤ substrate protein remaining % ≤ 80%)

inhibition at 0.5 µM [1]: 60 to 80%
inhibition at 2 µM [1]: 80 to 100%
Compound: COc1cc(N2CCC(N3CCN(Cc4ccc5c(c4)CN(C4CCC(=O)NC4=O)C5=S)CC3)CC2)ccc1Nc1ncc(Cl)c(Nc2ccccc2P(C)(C)=O)n1 (stereo not shown) [GT-09425, 3-(5-((4-(1-(4-((5-chloro-4-((2-(dimethylphosphoryl)phenyl)amino)pyrimidin-2-yl)amino)-3-methoxyphenyl)piperidin-4-yl)piperazin-1-yl)methyl)-1-thioxoisoindolin-2-yl)piperidine-2,6-dione]
inhibition at 0.01 µM (A375; A-375, 10 nM, read-out: Inhibition Rate at 10 nM (%)): 20 to 30%
inhibition at 0.5 µM (A375; A-375, 500 nM, read-out: Inhibition Rate at 500 nM (%)): 50 to 60%
inhibition at 0.01 µM (CFPAC-1; 10 nM, read-out: Inhibition Rate at 10 nM (%)): 10 to 20%
inhibition at 0.5 µM (CFPAC-1; 500 nM, read-out: Inhibition Rate at 500 nM (%)): 60 to 70%
